Patent US7560279B2, “Method of proliferating human hepatocytes and method for obtaining human hepatocytes” (Hiroshima Industrial Promotion Organization, priority 2002, dated 2009)

What was measured:
CYP2C9 = test system: T1, CYP2C9; assay: Diclofenac 4-hydroxylation activity in mouse liver microsomes; format: in vivo; details: liver microsomes of uPA(-/-)/SCID mouse
T1 construct: to check activity of CYP2C9 in the microsomal fraction sampled from a mouse; from tissue; host or cells: liver microsomal fraction of human-hepatocyte-transplanted chimeric mice (uPA/SCID); donor (human) microsome as comparison
Procedure: Further, to check activity of CYP2C9 in the microsomal fraction sampled from a mouse, diclofenac 4-hydroxylation activity was measured by adding diclofenac to the microsome. In consequence, diclofenac 4-hydroxylation activity was little detected in the uPA(−/−)/SCID mouse, and induction of activity by administration of a complement inhibitor was not observed also. […] In a chimeric mouse with 89% of replacement ratio, diclofenac 4-hydroxylation activity was confirmed higher than that of donor (human) microsome (FIG. 9).

[1] = test system: human complement produced by human hepatocytes; assay: Complement inhibitor given to human-hepatocyte chimeric mice: survival; format: in vivo, mouse; details: 200 μl of 2 mg/ml, every 2 days to twice a day; human albumin in blood exceeded 3 mg/ml
Procedure: Also, human hepatocytes in the mouse liver tissue were stained immunologically using an anti-human complement C3 antibody, and presence of a complement C3 in human hepatocytes was confirmed. Therefore, 200 μl of a complement inhibitor (Futhan®) with concentration of 2 mg/ml was administered into the mouse with increased human albumin concentration. Administration frequency was started from once per 2 days. Change in body weight was checked every day, and administration frequency or dose was increased when decrease in body weight was observed (FIG. 3). As the results, the mice with human albumin concentration in blood over 2 mg/ml received the complement inhibitor (Futhan®) every 2 days, and those over 4 mg/ml received every day, and further, those over 6 mg/ml received twice a day (FIG. 3).

human complement (hC3a) = assay: Human complement (hC3a) in blood of chimeric mice by ELISA; format: in vivo, mouse; details: administered vs non-administered chimeric mice
Procedure: Further, concentration of the human complement (hC3a) in blood of chimeric mice administered or non-administered with the complement inhibitor (Futhan®) was measured by ELISA method. In consequence, it was confirmed that hC3a concentration was lower in chimeric mice administered with the complement inhibitor compared with non-administered mice (FIG. 4).

human hepatocytes = assay: Human albumin in blood of chimeric mice (ELISA); format: in vivo; details: 60 mg/kg intraperitoneally before transplantation; compared with chimeric uPA-Tg(+/+)/SCID mouse
Procedure: From 1 week after transplantation of human hepatocytes, 10 μl blood samples were taken from the tail of a mouse once or twice per a week, and concentration of human albumin was measured using Quantitative ELISA immunoassay (Bethyl Laboratories Inc.).
Then, the uPA-Tg(+/−)/SCID and the uPA-Tg(+/+)/SCID mice, which were inoculated with 60 mg/kg of retrorsine intraperitoneally, were transplanted with human hepatocytes similarly as in Example 1 to prepare chimeric mice.
As to one chimeric mouse prepared in Example 1, at 100 days after transplantation of human hepatocytes, an anti-mouse Fas antibody which leads mouse hepatocytes to apoptosis by reaction with a Fas antigen thereof was inoculated (0.2 μg/g body weight) into the abdominal cavity of said chimeric mouse twice at the interval of 1 week.

[2] = test system: normalized mouse hepatocytes; assay: Growth inhibition of normalized mouse hepatocytes in uPA-Tg/SCID mice; format: in vivo; details: 30 or 60 mg/kg intraperitoneally
Procedure: Retrorsine was inoculated intraperitoneally in the amount of 30 or 60 mg/kg into a uPA-Tg(+/−)/SCID mouse and a uPA-Tg(+/+)/SCID mouse. As the result, number of colonies of normalized hepatocytes caused by deletion of introduced uPA gene (uPA-Tg(−/−)/SCID) was reduced in the uPA-Tg(+/−)/SCID mouse (FIG. 12).

T1 sequence (P11712 whole entry): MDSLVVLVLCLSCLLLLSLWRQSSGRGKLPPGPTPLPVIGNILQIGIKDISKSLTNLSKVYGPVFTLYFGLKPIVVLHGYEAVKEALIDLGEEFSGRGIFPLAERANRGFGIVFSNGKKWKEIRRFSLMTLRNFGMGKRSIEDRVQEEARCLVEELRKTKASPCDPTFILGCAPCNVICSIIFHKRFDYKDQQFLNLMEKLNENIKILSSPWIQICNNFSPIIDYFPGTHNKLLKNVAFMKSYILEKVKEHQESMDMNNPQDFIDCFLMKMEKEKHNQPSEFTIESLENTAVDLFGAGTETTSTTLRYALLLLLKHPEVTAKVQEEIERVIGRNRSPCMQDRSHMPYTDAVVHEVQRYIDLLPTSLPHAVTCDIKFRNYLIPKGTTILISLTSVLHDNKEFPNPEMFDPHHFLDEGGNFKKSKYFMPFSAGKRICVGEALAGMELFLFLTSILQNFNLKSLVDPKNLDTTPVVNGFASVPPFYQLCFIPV

Molecule | induction of diclofenac 4-hydroxylation activity (CYP2C9) | survival of chimeric mouse [1] | hC3a concentration in blood (human complement (hC3a)) | human albumin concentration in blood of chimeric uPA-Tg(+/-)/SCID mouse (human hepatocytes) | number of colonies of normalized hepatocytes caused by deletion of introduced uPA gene [2]
N=C(N)c1ccc2cc(OC(=O)c3ccc(N=C(N)N)cc3)ccc2c1 [Futhan, nafamostat mesilate] | not observed | could live for long period | lower |  | 
retrorsine |  |  |  | increased to the same level | reduced
